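Exposure lasted 48 hours, with cells grown in 96-well plates and compounds tested at five concentrations. GI50: concentration for 50% inhibition of growth.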 Activity calls are given as the source filed them. No stated cut-off is given here; in the data, active = GI50 up to about 1.1 µM and inactive = higher.
Key:
Assay in all cases: growth of human tumour cells (NCI), 48 h
RPMI-8226 = tested on: RPMI-8226
Malme-3M = tested on: Malme-3M
NCI/ADR-RES = tested on: NCI/ADR-RES
K562 = tested on: K562
SF-295 = tested on: SF-295
SNB-75 = tested on: SNB-75
COLO 205 = tested on: COLO 205
OVCAR-4 = tested on: OVCAR-4
HCT-116 = tested on: HCT-116
LOX IMVI = tested on: LOX IMVI
MOLT-4 = tested on: MOLT-4
IGROV-1 = tested on: IGROV-1
UACC-257 = tested on: UACC-257
SK-OV-3 = tested on: SK-OV-3
CCRF-CEM = tested on: CCRF-CEM
OVCAR-3 = tested on: OVCAR-3
HT-29 = tested on: HT-29
EKVX = tested on: EKVX
MDA-N = tested on: MDA-N
SF-268 = tested on: SF-268

Structure (SMILES)	GI50 (RPMI-8226)	GI50 (Malme-3M)	GI50 (NCI/ADR-RES)	GI50 (K562)	GI50 (SF-295)	GI50 (SNB-75)	GI50 (COLO 205)	GI50 (OVCAR-4)	GI50 (HCT-116)	GI50 (LOX IMVI)	GI50 (MOLT-4)	GI50 (IGROV-1)	GI50 (UACC-257)	GI50 (SK-OV-3)	GI50 (CCRF-CEM)	GI50 (OVCAR-3)	GI50 (HT-29)	GI50 (EKVX)	GI50 (MDA-N)	GI50 (SF-268)
CO[C@@H]1C[C@H](OC(N)=O)[C@@H]2C=C[C@@H]3/C=C(C)/C=C/[C@@H](C)[C@H](/C(C)=C/[C@@H](C)NC(C)=O)OC(=O)/C=C/C=C(C)\C=C\[C@]3(C)[C@@H]2C1 [SUPERSTOLIDE B]	0.0158 µM (active)	< 0.005 µM (active)	< 0.005 µM (active)	< 0.005 µM (active)	< 0.005 µM (active)	< 0.005 µM (active)	< 0.005 µM (active)	< 0.005 µM (active)	< 0.005 µM (active)	< 0.005 µM (active)	0.31 µM (active)	< 0.005 µM (active)	0.0189 µM (active)	< 0.005 µM (active)	0.107 µM (active)	< 0.005 µM (active)	< 0.005 µM (active)	0.0986 µM (active)	< 0.005 µM (active)	0.0724 µM (active)
OCCCNCc1ccncc1	> 100 µM (inactive)	> 100 µM (inactive)	> 100 µM (inactive)	> 100 µM (inactive)	> 100 µM (inactive)	> 100 µM (inactive)	> 100 µM (inactive)	> 100 µM (inactive)	> 100 µM (inactive)	> 100 µM (inactive)	> 100 µM (inactive)	> 100 µM (inactive)		> 100 µM (inactive)	> 100 µM (inactive)	> 100 µM (inactive)	> 100 µM (inactive)	> 100 µM (inactive)	> 100 µM (inactive)	> 100 µM (inactive)
COc1cc(C2C3=C(COC3=O)Oc3cc4c(cc32)OCO4)ccc1O (stereo unspecified)	0.372 µM (active)	0.174 µM (active)	0.242 µM (active)	0.148 µM (active)	0.127 µM (active)	0.225 µM (active)	0.225 µM (active)	0.321 µM (active)	0.448 µM (active)	0.601 µM (active)	0.543 µM (active)	0.509 µM (active)		0.302 µM (active)	0.352 µM (active)	0.189 µM (active)	0.359 µM (active)	1.05 µM (active)	0.11 µM (active)	2.07 µM (inactive)
Cc1nc(C(N)=S)sc1C(=O)C/C(=N/N)C(=O)Nc1cccc(Cl)c1C	> 100 µM (inactive)	> 100 µM (inactive)	> 100 µM (inactive)	> 100 µM (inactive)	> 100 µM (inactive)	> 100 µM (inactive)		> 100 µM (inactive)	> 100 µM (inactive)	> 100 µM (inactive)	> 100 µM (inactive)	> 100 µM (inactive)	> 100 µM (inactive)	> 100 µM (inactive)	> 100 µM (inactive)	> 100 µM (inactive)	> 100 µM (inactive)	> 100 µM (inactive)	> 100 µM (inactive)	> 100 µM (inactive)
O=S(=O)(NC1OCCCC1I)c1ccccc1 (stereo unspecified)	43.2 µM (inactive)	> 100 µM (inactive)	> 100 µM (inactive)	> 100 µM (inactive)	> 100 µM (inactive)	> 100 µM (inactive)	> 100 µM (inactive)	89.7 µM (inactive)	> 100 µM (inactive)	84.9 µM (inactive)	> 100 µM (inactive)	44.5 µM (inactive)	> 100 µM (inactive)	> 100 µM (inactive)	68.4 µM (inactive)	> 100 µM (inactive)	> 100 µM (inactive)	> 100 µM (inactive)	> 100 µM (inactive)	> 100 µM (inactive)
CCCCCCCC(=O)OC[n+]1cccc(-c2c(COC(=O)NC(C)C)c(COC(=O)NC(C)C)c3n2CCC3)c1	> 86.1 µM (inactive)	> 100 µM (inactive)	> 100 µM (inactive)	83.6 µM (inactive)	> 84.1 µM (inactive)	> 78 µM (inactive)	> 87.7 µM (inactive)	> 100 µM (inactive)	50 µM (inactive)	60.3 µM (inactive)	20.1 µM (inactive)	> 51.2 µM (inactive)	> 100 µM (inactive)	> 100 µM (inactive)	21.2 µM (inactive)	> 100 µM (inactive)	> 100 µM (inactive)	> 100 µM (inactive)	> 100 µM (inactive)	> 55.8 µM (inactive)
CCOC(=O)C1(Cc2ccc3c(c2)CCC3)Cc2cc3c(cc2C1)CCC3	14.6 µM (inactive)	27.2 µM (inactive)	78.5 µM (inactive)	15.2 µM (inactive)	25.1 µM (inactive)	75.5 µM (inactive)	33.9 µM (inactive)	28 µM (inactive)	25.5 µM (inactive)	15.4 µM (inactive)	11.5 µM (inactive)	46.8 µM (inactive)	23.7 µM (inactive)	24.7 µM (inactive)	13.9 µM (inactive)	32.4 µM (inactive)	6.46 µM (inactive)	47.6 µM (inactive)	37 µM (inactive)	53.2 µM (inactive)
O[C@]12C=C(c3nccc4c3[nH]c3ccccc34)[C@@H]3CCN(CCCC/C=C\CC1)C[C@@]31CC3/C=C\CCCCN3[C@H]12 (stereo partly specified)	0.31 µM (active)	0.509 µM (active)	0.514 µM (active)	0.367 µM (active)	0.513 µM (active)	0.242 µM (active)	0.344 µM (active)	0.454 µM (active)	0.243 µM (active)	0.275 µM (active)	0.138 µM (active)	0.112 µM (active)	0.652 µM (active)	0.0869 µM (active)	0.74 µM (active)	0.302 µM (active)	0.119 µM (active)	0.441 µM (active)	0.367 µM (active)	0.533 µM (active)
CC(C)(C)c1ccc(O)c(CN(Cc2cc(C(C)(C)C)ccc2O)c2ccccc2)c1	16.7 µM (inactive)	15.8 µM (inactive)	19.1 µM (inactive)	11.6 µM (inactive)	17.5 µM (inactive)	18.7 µM (inactive)	17.1 µM (inactive)	19.2 µM (inactive)	19.4 µM (inactive)	13.7 µM (inactive)	15.6 µM (inactive)	21.1 µM (inactive)	2.48 µM (inactive)	29.4 µM (inactive)	32.4 µM (inactive)	15.6 µM (inactive)	18.3 µM (inactive)	16.5 µM (inactive)	16.6 µM (inactive)	17.6 µM (inactive)
COC(=O)C(=O)C(C(=O)C(=O)Nc1ccc(C)c(C)c1)c1nc2ccc([N+](=O)[O-])cc2nc1O (stereo unspecified)	> 100 µM (inactive)	> 100 µM (inactive)	> 100 µM (inactive)	> 100 µM (inactive)	> 100 µM (inactive)	> 100 µM (inactive)		> 100 µM (inactive)	> 100 µM (inactive)	> 100 µM (inactive)	> 100 µM (inactive)	> 100 µM (inactive)	> 100 µM (inactive)	> 100 µM (inactive)	> 100 µM (inactive)	> 100 µM (inactive)	> 100 µM (inactive)	99.5 µM (inactive)	> 100 µM (inactive)	> 100 µM (inactive)
